One block for each compound: values may come before it.
How the values were obtained:
H. influenzae acrB = assay: Antibacterial activity; type: cell-based, Haemophilus influenzae; conditions: efflux-negative strain
[1] = system: rabbit reticulocytes, eukaryotic TT; assay: Eukaryotic TT assay using rabbit reticulocytes; type: biochemical; conditions: read-out: IC50 eukaryotic TT assay, data not shown
[2] = system: S30 extracts of E. coli, coupled Transcription-Translation (RNA polymerase)
[3] = logD7.4
[4] = equilibrium solubility
[5] = system: S30 extracts of E. coli, coupled Transcription-Translation (RNA polymerase); conditions: high-throughput screen hit; cited from earlier work
[6] = cited from earlier work

Compound: 3,5-dimethyl-N-(2-(4-(4-methylbenzyl)piperidin-1-yl)-3,4-dioxocyclobut-1-enyl)isoxazole-4-sulfonamide [compound 1]
MIC H. influenzae acrB (H. influenzae acrB): 200 µM
IC50 [1]: > 100000 nM
IC50 ([2]; read-out: IC50 Eco-TT, E. coli coupled transcription-translation assay): 280 nM
logD [3]: 0.1
fu, compound fraction unbound to human plasma protein (human plasma, minimum detection level 1%): <1%
Solubility [4]: >1000 µM
half maximal inhibitory concentration (IC50), TT assay [5]: sub-micromolar

Compound: O=c1c(NS(=O)(=O)c2ccccc2)c(N2CCC(Cc3ccccc3)CC2)c1=O [compound 2, N-(2-(4-benzylpiperidin-1-yl)-3,4-dioxocyclobut-1-enyl)benzenesulfonamide]
reduction in activity/potency in the TT assay ([2]; compared to compound 1): 7 fold

Compound: Cc1nn(C(F)F)cc1S(=O)(=O)Nc1c(N2CCC(Cc3ccccc3)CC2)c(=O)c1=O [compound 3, N-(2-(4-benzylpiperidin-1-yl)-3,4-dioxocyclobut-1-enyl)-1-(difluoromethyl)-3-methyl-1H-pyrazole-4-sulfonamide]
biochemical activity in TT assay, in words [2]: biochemically active

Compound: Cc1noc(C)c1C(=O)Nc1c(N2CCC(Cc3ccccc3)CC2)c(=O)c1=O [compound 4, N-(2-(4-benzylpiperidin-1-yl)-3,4-dioxocyclobut-1-enyl)-3,5-dimethylisoxazole-4-carboxamide]
biochemical activity in TT assay, in words [2]: inactive

Compound: Cc1noc(C)c1S(=O)(=O)Nc1c(N2CCC(C)CC2)c(=O)c1=O [compound 5, 3,5-dimethyl-N-(2-(4-methylpiperidin-1-yl)-3,4-dioxocyclobut-1-enyl)isoxazole-4-sulfonamide]
biochemical activity in TT assay, in words [2]: inactive

Compound: Cc1noc(C)c1S(=O)(=O)Nc1c(N2CCC(c3ccccc3)CC2)c(=O)c1=O [compound 6, N-(3,4-dioxo-2-(4-phenylpiperidin-1-yl)cyclobut-1-enyl)-3,5-dimethylisoxazole-4-sulfonamide]
biochemical activity in TT assay, in words [2]: much less active

improvement of free fraction (fu) (compound 14 versus compound 8): 7 fold
reduction of free fraction (compound 14 versus compound 13): four
Compound: Cc1noc(C)c1S(=O)(=O)Nc1c(N2CCC(NCc3ccc(C(F)(F)F)cc3)CC2)c(=O)c1=O [compound 14, N-(3,4-dioxo-2-(4-(4-(trifluoromethyl)benzylamino)piperidin-1-yl)cyclobut-1-enyl)-3,5-dimethylisoxazole-4-sulfonamide]

Compound: Cc1noc(C)c1S(=O)(=O)Nc1c(N2CCC(N(C)CC3CCCCC3)CC2)c(=O)c1=O [compound 17, N-(2-(4-((cyclohexylmethyl)(methyl)amino)piperidin-1-yl)-3,4-dioxocyclobut-1-enyl)-3,5-dimethylisoxazole-4-sulfonamide]
biochemical activity in TT assay, in words [2]: inactive

Compound: myxopyronin
plasma protein binding, in words [6]: highly plasma protein bound
